Source: patent EP4692081A1, “PREPARATION METHOD FOR NAPHTHOISOXAZOLE COMPOUND” (priority 2023, dated 2024)
Counter-ions that a name gives are not always drawn.

Tests used:
Format in all cases: cell-based
IRAK4 = molecular target: T1, IRAK4 (Homo sapiens, UniProt Q9NWZ3); assay: Target protein degradation effect in K562 IRAK4-HiBiT cells (Nano-Glo HiBiT luminescence); settings: incubated 16 to 18 hours
T1 construct: expressed in transfected cells; host or cells: K562 IRAK4-HiBiT cells
T1 sequence (Q9NWZ3 1-460): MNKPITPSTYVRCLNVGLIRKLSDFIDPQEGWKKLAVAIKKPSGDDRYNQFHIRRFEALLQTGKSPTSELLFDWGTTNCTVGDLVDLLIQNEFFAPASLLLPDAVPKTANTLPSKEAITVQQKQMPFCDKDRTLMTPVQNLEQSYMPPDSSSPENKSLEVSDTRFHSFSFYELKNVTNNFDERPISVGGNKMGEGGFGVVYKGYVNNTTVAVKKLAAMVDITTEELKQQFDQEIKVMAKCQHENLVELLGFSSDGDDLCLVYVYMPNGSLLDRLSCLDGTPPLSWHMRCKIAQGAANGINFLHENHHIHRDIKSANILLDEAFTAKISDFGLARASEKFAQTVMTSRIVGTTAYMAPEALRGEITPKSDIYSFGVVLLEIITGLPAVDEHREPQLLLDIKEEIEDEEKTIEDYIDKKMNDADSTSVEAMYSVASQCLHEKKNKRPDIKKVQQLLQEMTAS
Description: Objective: In this experiment, the degradation effect of the test compound on the target protein IRAK4 in K562 IRAK4-HiBiT cells was detected.
Cells: K562 IRAK4-HiBiT cells [formula]
Positive control: 1000 nM; negative control: 0.1% DMSO Table 1. Reagents and consumables
• 1. […] Cell seeding • (1) The cell culture medium was discarded, and the cells were washed once with DPBS, digested with trypsin, and counted to prepare a cell suspension of […]. • (2) 25 µL/well of cell suspension was added to the assay plate containing the test compound using Multidrop Combi at medium speed. • (3) The assay plate containing cells was returned to an incubator with 5% CO2 at 37°C and incubated for 16 to 18 hours.
• (1) 25 µL/well of assay reagent (NanoGlo lysis buffer + substrate + LgBit protein) was added to the assay plate using Multidrop Combi at high speed, and the plate was shaken for 10 minutes. • (2) The plate was centrifuged at 2000 rpm for 1 minute to remove air bubbles. • (3) The plate was read on Envision using US Luminescence detection method.
The degradation rate (DR) of the test compound was calculated using the following formula: DR (%) = (RLU vehicle control - RLU compound) / (RLU vehicle control - RLU positive control) * 100%, where the vehicle control served as the blank control. […]

IKZF3 = molecular target: T2, IKZF3 (Homo sapiens, UniProt Q96SW2+Q9UKT9); assay: In cell western analysis of IKZF3 protein expression level in MM.1S cells; settings: IKZF3, MM.1S cells, 24 hours
T2 construct: expression levels of IKZF1 and IKZF3 proteins in MM.1S cells; host or cells: MM.1S cells
T2 sequence (Q9UKT9 whole entry): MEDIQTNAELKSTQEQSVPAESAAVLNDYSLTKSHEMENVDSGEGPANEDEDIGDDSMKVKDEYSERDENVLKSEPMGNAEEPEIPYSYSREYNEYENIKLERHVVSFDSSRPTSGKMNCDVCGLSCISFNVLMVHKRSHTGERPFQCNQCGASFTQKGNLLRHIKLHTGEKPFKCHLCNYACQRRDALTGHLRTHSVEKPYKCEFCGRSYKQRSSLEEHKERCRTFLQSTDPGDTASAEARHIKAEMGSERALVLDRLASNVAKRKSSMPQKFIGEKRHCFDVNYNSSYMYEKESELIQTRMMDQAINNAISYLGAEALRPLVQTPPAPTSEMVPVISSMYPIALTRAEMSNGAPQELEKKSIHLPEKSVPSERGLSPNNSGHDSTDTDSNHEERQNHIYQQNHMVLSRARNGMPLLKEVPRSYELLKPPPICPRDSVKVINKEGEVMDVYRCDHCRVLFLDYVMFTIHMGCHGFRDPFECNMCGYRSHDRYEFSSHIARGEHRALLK
T2 sequence (Q96SW2 whole entry): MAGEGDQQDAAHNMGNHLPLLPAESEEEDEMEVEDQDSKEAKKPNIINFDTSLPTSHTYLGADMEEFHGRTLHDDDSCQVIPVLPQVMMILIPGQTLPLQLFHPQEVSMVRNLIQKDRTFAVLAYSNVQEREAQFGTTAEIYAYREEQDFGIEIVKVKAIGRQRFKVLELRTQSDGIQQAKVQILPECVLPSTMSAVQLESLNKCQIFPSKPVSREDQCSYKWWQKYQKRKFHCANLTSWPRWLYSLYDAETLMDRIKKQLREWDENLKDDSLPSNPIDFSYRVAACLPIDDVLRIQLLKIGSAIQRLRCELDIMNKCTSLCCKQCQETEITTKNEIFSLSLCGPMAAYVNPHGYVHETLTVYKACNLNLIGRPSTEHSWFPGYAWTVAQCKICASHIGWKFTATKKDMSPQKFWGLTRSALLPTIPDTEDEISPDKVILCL
T2 sequence (Q16531 whole entry partner): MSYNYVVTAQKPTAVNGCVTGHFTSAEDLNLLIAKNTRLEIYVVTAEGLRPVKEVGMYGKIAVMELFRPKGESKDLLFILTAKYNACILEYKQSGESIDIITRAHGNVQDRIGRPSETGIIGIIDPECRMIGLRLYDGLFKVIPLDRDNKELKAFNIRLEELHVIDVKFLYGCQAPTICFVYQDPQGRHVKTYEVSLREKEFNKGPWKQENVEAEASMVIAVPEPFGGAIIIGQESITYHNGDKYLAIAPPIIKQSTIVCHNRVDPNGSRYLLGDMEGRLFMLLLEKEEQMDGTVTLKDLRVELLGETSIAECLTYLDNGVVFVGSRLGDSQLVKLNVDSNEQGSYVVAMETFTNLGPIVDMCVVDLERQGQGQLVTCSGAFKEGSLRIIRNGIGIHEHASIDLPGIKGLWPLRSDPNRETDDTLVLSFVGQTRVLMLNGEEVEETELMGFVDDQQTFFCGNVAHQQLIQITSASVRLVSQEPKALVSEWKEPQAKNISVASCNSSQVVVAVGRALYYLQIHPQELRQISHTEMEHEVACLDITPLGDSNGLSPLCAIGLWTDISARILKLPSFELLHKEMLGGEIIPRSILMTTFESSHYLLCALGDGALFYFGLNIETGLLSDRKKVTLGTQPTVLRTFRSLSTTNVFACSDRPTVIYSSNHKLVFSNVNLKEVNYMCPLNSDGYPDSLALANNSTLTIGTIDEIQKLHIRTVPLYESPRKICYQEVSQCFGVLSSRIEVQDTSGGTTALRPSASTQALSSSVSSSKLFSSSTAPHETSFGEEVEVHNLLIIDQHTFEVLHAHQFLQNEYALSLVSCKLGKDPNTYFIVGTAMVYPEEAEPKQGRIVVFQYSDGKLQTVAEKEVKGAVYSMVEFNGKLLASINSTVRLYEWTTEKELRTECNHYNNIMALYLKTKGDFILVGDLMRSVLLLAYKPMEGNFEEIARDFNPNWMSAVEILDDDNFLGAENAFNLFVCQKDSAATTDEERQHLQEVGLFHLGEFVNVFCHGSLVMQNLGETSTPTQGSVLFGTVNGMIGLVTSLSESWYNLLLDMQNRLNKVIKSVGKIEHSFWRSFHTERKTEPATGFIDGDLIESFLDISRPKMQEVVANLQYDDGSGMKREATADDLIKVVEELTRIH
Description: (§1) Objective: The experiment was conducted to evaluate the degradation effects of test compounds on IKZF1 and IKZF3 proteins in MM.1S cells by detecting their impact on the expression levels of IKZF1 and IKZF3 proteins in MM.1S cells.
(§2) Cell line: MM.1S cell (obtained from ATCC; Cat. No. CRL-2974)
(§3) Negative control: 0.1% DMSO Table 4. Reagents and consumables
(§4) Experimental scheme: • 1) MM.1S cells in the logarithmic growth phase were seeded into a 96-well plate at 1.2 × 10^5 cells per well and cultured overnight. • 2) On the second day, drug treatment was initiated with a starting concentration of 300 nM, followed by a 3-fold dilution in triplicate wells, with 10 concentration gradients (containing DMSO), and incubated for 24 hours in a culture incubator. • 3) The mixture was centrifuged, and the cell supernatant was carefully removed. […]
(§5) GraphPad Prism 6 software was utilized to fit the curve with the inhibition rate data, and the DC50 value was calculated.

IKZF1 = molecular target: T3, IKZF1 (Homo sapiens, UniProt Q13422+Q96SW2); assay: In cell western analysis of IKZF1 protein expression level in MM.1S cells; settings: IKZF 1, MM.1S cells, 24 hours
T3 construct: expression levels of IKZF1 and IKZF3 proteins in MM.1S cells; host or cells: MM.1S cells
T3 sequence (Q13422 whole entry): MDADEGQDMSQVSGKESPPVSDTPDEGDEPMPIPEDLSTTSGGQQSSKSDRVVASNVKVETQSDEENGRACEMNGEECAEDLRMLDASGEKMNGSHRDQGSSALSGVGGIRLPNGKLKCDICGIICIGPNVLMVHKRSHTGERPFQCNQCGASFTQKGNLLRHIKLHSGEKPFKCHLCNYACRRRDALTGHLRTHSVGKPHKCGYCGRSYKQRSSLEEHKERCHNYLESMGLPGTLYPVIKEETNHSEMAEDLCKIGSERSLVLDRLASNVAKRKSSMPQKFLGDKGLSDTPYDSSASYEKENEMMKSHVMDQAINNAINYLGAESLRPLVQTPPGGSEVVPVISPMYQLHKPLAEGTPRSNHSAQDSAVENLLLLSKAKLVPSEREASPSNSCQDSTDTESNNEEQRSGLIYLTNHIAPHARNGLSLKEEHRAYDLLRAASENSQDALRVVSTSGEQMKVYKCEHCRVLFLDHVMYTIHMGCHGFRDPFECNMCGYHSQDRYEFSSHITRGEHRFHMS
T3 sequence (Q96SW2 whole entry): as the sequence (Q96SW2 whole entry) above
T3 sequence (Q16531 whole entry partner): as the sequence (Q16531 whole entry partner) above
Description: as §1, §2, §3, §4, §5

O=C1CCC(c2noc3ccc4c(NC(=O)CN5CCN(C[C@H]6CC[C@H](n7cc(NC(=O)c8coc(-c9ccnc(NCC%10CC%10)c9)n8)c(C(F)F)n7)CC6)CC5)cccc4c23)C(=O)N1 (stereo partly drawn) [Hydrochloride of Compound of Formula (I)]
DC50 (IRAK4): 4.87 nM
DC50 (IKZF3): 20.6 nM
DC50 (IKZF1): 23.4 nM
